Results on 25 molecules are retold here after patent publication US20080161289A1, “Fused Thiazole Derivatives Having Affinity for the Histamine H3 Receptor” (Glaxo Group Limited, priority 2005, published 2008).

The target in this test is T1, histamine H3 receptors (Homo sapiens, UniProt Q9Y5N1).
T1 construct: expressed in transfected cells; host or cells: CHO K1 cells carrying pSwitch, transfected with pGeneH3, induced with mifepristone; clone 3H3; membrane preparation
Put plainly: Histamine H3 functional antagonist assay ([35S]-GTPγS SPA on membranes from H3 cells). The settings on record: hydrochloride salts tested; H3 functional antagonist assay using membrane prepared from cultured H3 cells; averages of a number of experiments; read-out: functional pKi (fpKi) (converted). In kind it is biochemical. An excerpt: A membrane preparation containing histamine H3 receptors may be prepared in accordance with the following procedures:
(i) Generation of Histamine H3 Cell Line
DNA encoding the human histamine H3 gene (Huvar, A. et al. (1999) Mol. Pharmacol. 55(6), 1101-1107) was cloned into a holding vector, pCDNA3.1 TOPO (InVitrogen) and its cDNA was isolated from this vector by restriction digestion of plasmid DNA with the enzymes BamHI and Not-1 and ligated into the inducible expression vector pGene (InVitrogen) digested with the same enzymes. The GeneSwitch™ system (a system where in transgene expression is switched off in the absence of an inducer and switched on in the presence of an inducer) was performed as described in U.S. Pat. Nos. 5,364,791; 5,874,534; and 5,935,934. Ligated DNA was transformed into competent DH5α E. coli host bacterial cells and plated onto Luria Broth (LB) agar containing Zeocin™ (an antibiotic which allows the selection of cells expressing the sh ble gene which is present on pGene and pSwitch) at 50 μg ml^−1. Colonies containing the re-ligated plasmid were identified by restriction analysis. DNA for transfection into mammalian cells was prepared from 250 ml cultures of the host bacterium containing the pGeneH3 plasmid and isolated using a DNA preparation kit (Qiagen Midi-Prep) as per manufacturers guidelines (Qiagen).
CHO K1 cells previously transfected with the pSwitch regulatory plasmid (InVitrogen) were seeded at 2×10e6 cells per T75 flask in Complete Medium, containing Hams F12 (GIBCOBRL, Life Technologies) medium supplemented with 10% v/v dialysed foetal bovine serum, L-glutamine, and hygromycin (100 μg ml^−1), 24 hours prior to use. Plasmid DNA was transfected into the cells using Lipofectamine plus according to the manufacturers guidelines (InVitrogen). 48 hours post transfection cells were placed into complete medium supplemented with 500 μg ml^−1 Zeocin™.
10-14 days post selection 10 nM Mifepristone (InVitrogen), was added to the culture medium to induce the expression of the receptor. 18 hours post induction cells were detached from the flask using ethylenediamine tetra-acetic acid (EDTA; 1:5000; InVitrogen), following several washes with phosphate buffered saline pH 7.4 and resuspended in Sorting Medium containing Minimum Essential Medium (MEM), without phenol red, and supplemented with Earles salts and 3% Foetal Clone II (Hyclone). Approximately 1×10e7 cells were examined for receptor expression by staining with a rabbit polyclonal antibody, 4a, raised against the N-terminal domain of the histamine H3 receptor, incubated on ice for 60 minutes, followed by two washes in sorting medium. Receptor bound antibody was detected by incubation of the cells for 60 minutes on ice with a goat anti rabbit antibody, conjugated with Alexa 488 fluorescence marker (Molecular Probes). Following two further washes with Sorting Medium, cells were filtered through a 50 μm Filcon™ (BD Biosciences) and then analysed on a FACS Vantage SE Flow Cytometer fitted with an Automatic Cell Deposition Unit. Control cells were non-induced cells treated in a similar manner. Positively stained cells were sorted as single cells into 96-well plates, containing Complete Medium containing 500 μg ml^−1 Zeocin™ and allowed to expand before reanalysis for receptor expression via antibody and ligand binding studies. One clone, 3H3, was selected for membrane preparation.
(ii) Membrane Preparation from Cultured Cells
All steps of the protocol are carried out at 4° C. and with pre-cooled reagents. The cell pellet is resuspended in 10 volumes of homogenisation buffer (50 mM N-2-hydroxyethylpiperazine-N′-2-ethanesulfonic acid (HEPES), 1 mM ethylenediamine tetra-acetic acid (EDTA), pH 7.4 with KOH, supplemented with 10e-6M leupeptin (acetyl-leucyl-leucyl-arginal; Sigma L2884), 25 μg/ml bacitracin (Sigma B0125), 1 mM phenylmethylsulfonyl fluoride (PMSF) and 2×10e-6M pepstain A (Sigma)). […]

T1 sequence (Q9Y5N1 whole entry): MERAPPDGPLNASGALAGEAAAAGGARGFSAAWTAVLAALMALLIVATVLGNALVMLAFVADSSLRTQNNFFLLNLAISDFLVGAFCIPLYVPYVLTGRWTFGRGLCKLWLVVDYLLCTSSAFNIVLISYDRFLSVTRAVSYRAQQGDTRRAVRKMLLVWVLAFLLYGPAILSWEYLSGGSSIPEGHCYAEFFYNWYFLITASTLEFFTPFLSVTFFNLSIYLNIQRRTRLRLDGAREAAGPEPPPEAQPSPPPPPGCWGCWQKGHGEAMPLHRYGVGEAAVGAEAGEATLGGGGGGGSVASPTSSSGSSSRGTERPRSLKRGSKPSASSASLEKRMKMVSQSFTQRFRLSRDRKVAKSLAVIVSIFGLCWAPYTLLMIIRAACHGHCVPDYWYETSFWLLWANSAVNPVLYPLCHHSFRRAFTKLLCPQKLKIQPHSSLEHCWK

Regarding `c1cc(N2CCCCC2)ncc1-c1nc2c(s1)CCN(C1CCC1)CC2` [Example E55, 6-Cyclobutyl-2-[6-(1-piperidinyl)-3-pyridinyl]-5,6,7,8-tetrahydro-4H-[1,3]thiazolo[4,5-d]azepine], the Ki is less than 1.26 nM.
On to `c1ncc(-c2nc3c(s2)CCN(C2CCC2)CC3)cn1` [Example E58, 6-Cyclobutyl-2-(5-pyrimidinyl)-5,6,7,8-tetrahydro-4H-[1,3]thiazolo[4,5-d]azepine], for which the Ki was less than 31.6 nM.
Under `c1nc(N2CCCCC2)ncc1-c1nc2c(s1)CCN(C1CCC1)CC2` [Example E61, 6-Cyclobutyl-2-[2-(1-piperidinyl)-5-pyrimidinyl]-5,6,7,8-tetrahydro-4H-[1,3]thiazolo[4,5-d]azepine] stands less than 31.6 nM; under `N#Cc1cncc(N2CCC(c3nc4c(s3)CCN(C3CCC3)CC4)CC2)c1` [Example E66, 5-[4-(6-Cyclobutyl-5,6,7,8-tetrahydro-4H-[1,3]thiazolo[4,5-d]azepin-2-yl)-1-piperidinyl]-3-pyridinecarbonitrile], less than 1.26 nM; under `N#Cc1ccc(N2CCC(c3nc4c(s3)CCN(C3CCC3)CC4)CC2)cc1` [Example E67, 4-[4-(6-Cyclobutyl-5,6,7,8-tetrahydro-4H-[1,3]thiazolo[4,5-d]azepin-2-yl)-1-piperidinyl]benzonitrile], less than 0.316 nM.
In the case of `Cc1ccccc1NC(=O)N1CCC(c2nc3c(s2)CCN(C2CCC2)CC3)CC1` [Example E70, 4-(6-Cyclobutyl-5,6,7,8-tetrahydro-4H-[1,3]thiazolo[4,5-d]azepin-2-yl)-N-(2-methylphenyl)-1-piperidinecarboxamide], the Ki was less than 1.26 nM.
Under `N#Cc1ccc(-c2nc3c(s2)CCN(C2CCCC2)CC3)nc1` [Example E74, 6-(6-Cyclopentyl-5,6,7,8-tetrahydro-4H-[1,3]thiazolo[4,5-d]azepin-2-yl)-3-pyridinecarbonitrile] stands less than 31.6 nM; under `CNC(=O)c1ccc(-c2nc3c(s2)CCN(C2CCC2)CC3)nc1` [Example E76, 6-(6-Cyclobutyl-5,6,7,8-tetrahydro-4H-[1,3]thiazolo[4,5-d]azepin-2-yl)-N-methyl-3-pyridinecarboxamide], less than 31.6 nM; under `CNC(=O)c1ccc(N2CCC(c3nc4c(s3)CCN(C3CCC3)CC4)CC2)cn1` [Example E77, 5-[4-(6-Cyclobutyl-5,6,7,8-tetrahydro-4H-[1,3]thiazolo[4,5-d]azepin-2-yl)-1-piperidinyl]-N-methyl-2-pyridinecarboxamide], less than 1.26 nM.
Take `Cc1ccccc1C(=O)N1CCC(c2nc3c(s2)CCN(C2CCC2)CC3)CC1` [Example E78, 6-Cyclobutyl-2-{1-[(2-methylphenyl)carbonyl]-4-piperidinyl}-5,6,7,8-tetrahydro-4H-[1,3]thiazolo[4,5-d]azepine]: the Ki was less than 0.316 nM.
Under `Cc1cc(C(=O)N2CCC(c3nc4c(s3)CCN(C3CCC3)CC4)CC2)[nH]n1` [Example E79, 6-Cyclobutyl-2-{1-[(3-methyl-1H-pyrazol-5-yl)carbonyl]-4-piperidinyl}-5,6,7,8-tetrahydro-4H-[1,3]thiazolo[4,5-d]azepine] stands less than 1.26 nM; under `O=C(c1ccc(Cl)cc1)N1CCC(c2nc3c(s2)CCN(C2CCC2)CC3)CC1` [Example E80, 2-{1-[(4-Chlorophenyl)carbonyl]-4-piperidinyl}-6-cyclobutyl-5,6,7,8-tetrahydro-4H-[1,3]thiazolo[4,5-d]azepine], less than 1.26 nM; under `O=C(c1cccc(Cl)c1)N1CCC(c2nc3c(s2)CCN(C2CCC2)CC3)CC1` [Example E81, 2-{1-[(3-Chlorophenyl)carbonyl]-4-piperidinyl}-6-cyclobutyl-5,6,7,8-tetrahydro-4H-[1,3]thiazolo[4,5-d]azepine], less than 0.316 nM.
Under `Cc1cccc(C(=O)N2CCC(c3nc4c(s3)CCN(C3CCC3)CC4)CC2)c1` [Example E82, 6-Cyclobutyl-2-{1-[(3-methylphenyl)carbonyl]-4-piperidinyl}-5,6,7,8-tetrahydro-4H-[1,3]thiazolo[4,5-d]azepine] stands less than 1.26 nM.
As to `Cc1cccnc1C(=O)N1CCC(c2nc3c(s2)CCN(C2CCC2)CC3)CC1` [Example E83, 6-Cyclobutyl-2-{1-[(3-methyl-2-pyridinyl)carbonyl]-4-piperidinyl}-5,6,7,8-tetrahydro-4H-[1,3]thiazolo[4,5-d]azepine], the Ki is less than 1.26 nM.
Consider `Cc1cn(C)nc1C(=O)N1CCC(c2nc3c(s2)CCN(C2CCC2)CC3)CC1` [Example E85, 6-Cyclobutyl-2-{1-[(1,4-dimethyl-1H-pyrazol-3-yl)carbonyl]-4-piperidinyl}-5,6,7,8-tetrahydro-4H-[1,3]thiazolo[4,5-d]azepine], for which the Ki was less than 1.26 nM.
Under `Cc1cc(C(=O)N2CCC(c3nc4c(s3)CCN(C3CCC3)CC4)CC2)nn1C` [Example E88, 6-Cyclobutyl-2-{1-[(1,5-dimethyl-1H-pyrazol-3-yl)carbonyl]-4-piperidinyl}-5,6,7,8-tetrahydro-4H-[1,3]thiazolo[4,5-d]azepine] stands less than 1.26 nM.
As for `O=C(c1ccccn1)N1CCC(c2nc3c(s2)CCN(C2CCC2)CC3)CC1` [Example E90, 6-Cyclobutyl-2-[1-(2-pyridinylcarbonyl)-4-piperidinyl]-5,6,7,8-tetrahydro-4H-[1,3]thiazolo[4,5-d]azepine], the figure is less than 1.26 nM; as for `Cc1cncc(C(=O)N2CCC(c3nc4c(s3)CCN(C3CCC3)CC4)CC2)n1` [Example E92, 6-Cyclobutyl-2-{1-[(6-methyl-2-pyrazinyl)carbonyl]-4-piperidinyl}-5,6,7,8-tetrahydro-4H-[1,3]thiazolo[4,5-d]azepine], less than 1.26 nM; as for `Cc1cc(C(=O)N2CCC(c3nc4c(s3)CCN(C3CCC3)CC4)CC2)ccn1` [Example E93, 6-Cyclobutyl-2-{1-[(2-methyl-4-pyridinyl)carbonyl]-4-piperidinyl}-5,6,7,8-tetrahydro-4H-[1,3]thiazolo[4,5-d]azepine], less than 1.26 nM.
As for `Cc1nccc(C(=O)N2CCC(c3nc4c(s3)CCN(C3CCC3)CC4)CC2)n1` [Example E95, 6-Cyclobutyl-2-{1-[(2-methyl-4-pyrimidinyl)carbonyl]-4-piperidinyl}-5,6,7,8-tetrahydro-4H-[1,3]thiazolo[4,5-d]azepine], the Ki was less than 1.26 nM.
As for `O=S1(=O)CCCN1c1ccc(-c2nc3c(s2)CCN(C2CCC2)CC3)cc1` [Example E99, 6-Cyclobutyl-2-[4-(1,1-dioxido-2-isothiazolidinyl)phenyl]-5,6,7,8-tetrahydro-4H-[1,3]thiazolo[4,5-d]azepine], the figure is less than 1.26 nM; as for `NC(=O)c1ccc(-c2nc3c(s2)CCN(C2CCC2)CC3)cn1` [Example E100, 5-(6-Cyclobutyl-5,6,7,8-tetrahydro-4H-[1,3]thiazolo[4,5-d]azepin-2-yl)-2-pyridinecarboxamide], less than 1.26 nM; as for `O=C1NCCN1c1ccc(-c2nc3c(s2)CCN(C2CCC2)CC3)cn1` [Example E103, 1-[5-(6-Cyclobutyl-5,6,7,8-tetrahydro-4H-[1,3]thiazolo[4,5-d]azepin-2-yl)-2-pyridinyl]-2-imidazolidinone], less than 1.26 nM.
For the molecule `N#Cc1ccc(C(=O)N2CCC(c3nc4c(s3)CCN(C3CCC3)CC4)C2)cc1` (stereo not shown) [Example E105, 4-{[3-(6-Cyclobutyl-5,6,7,8-tetrahydro-4H-[1,3]thiazolo[4,5-d]azepin-2-yl)-1-pyrrolidinyl]carbonyl}benzonitrile], the Ki was less than 1.26 nM.
